We go through seven compounds from ChEMBL document CHEMBL1201862, “PubChem BioAssay data set” (2004).

Test systems include NCI-H226; HL-60; SK-MEL-5; RPMI-8226; UACC-62; Hs-578T; PC-3; SK-MEL-2; M14; Malme-3M; OVCAR-5; SF-539; NCI-H460; COLO 205; A498; HCT-15; LOX IMVI; UACC-257; SNB-19; OVCAR-3.
What all share (experiment): NCI anticancer screen, dose series, 48 h

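Five concentrations, 48 hours, 96-well plates. GI50 is the concentration that inhibits growth by half.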 Active and inactive are the calls of the source. No stated cut-off is given here; in the data, active = GI50 up to about 1.1 µM and inactive = higher.

As for `Cc1cnc2nc(-c3cccc4ccccc34)cc(O)c2c1`, the GI50 is 0.01 µM (active) in the assay on NCI-H226; 0.000232 µM (active) in the assay on HL-60; 0.000359 µM (active) with SK-MEL-5; 0.000487 µM (active) in the assay with RPMI-8226; 0.000518 µM (active) in the assay on UACC-62; 0.00107 µM (active) in the assay with Hs-578T. The GI50 with PC-3 is 0.00121 µM (active); with SK-MEL-2, 0.000335 µM (active); in the assay on M14 it was 0.000711 µM (active); in the assay on Malme-3M it was 0.000289 µM (active); with OVCAR-5, 0.00351 µM (active); with SF-539, 0.000618 µM (active). Moreover, the GI50 is 0.00303 µM (active) in the assay with NCI-H460; 0.000708 µM (active) in the assay on COLO 205; 0.000352 µM (active) in the assay with A498; 0.000454 µM in the assay with HCT-15; 0.000819 µM (active) in the assay on LOX IMVI; 0.000254 µM (active) with UACC-257. Further, the GI50 was 0.00332 µM (active) in the assay on SNB-19 and 0.000281 µM (active) in the assay on OVCAR-3.

For `Nc1cccc(/C=C/C(=O)N2CCN(CCOC(c3ccccc3)c3ccccc3)CC2)c1`, the GI50 is 20.9 µM (inactive) with NCI-H226; 11.2 µM (inactive) in the assay with HL-60; 15.9 µM (inactive) with SK-MEL-5; 10.5 µM (inactive) in the assay with RPMI-8226; 16.1 µM (inactive) with UACC-62; 21 µM (inactive) with Hs-578T. Also, the GI50 in the assay on PC-3 was 14.7 µM (inactive); with SK-MEL-2, 16.2 µM (inactive); with M14, 13.2 µM (inactive); in the assay with Malme-3M, 16.7 µM (inactive); with OVCAR-5, 19.1 µM (inactive); with SF-539, 17.3 µM (inactive). Further, the GI50 in the assay on NCI-H460 is 16.9 µM (inactive); in the assay with COLO 205, 12.7 µM (inactive); in the assay on A498 it was 17.5 µM (inactive); with HCT-15, 16.3 µM; in the assay with LOX IMVI, 17.9 µM (inactive); with UACC-257, 17.7 µM (inactive). Further, the figures for the GI50 with SNB-19 and with OVCAR-3 were 17 µM (inactive) and 16.6 µM (inactive), respectively.

On to `[O-][n+]1onc(-c2ccccc2)c1CN1CCOCC1`, for which the GI50 with NCI-H226 was > 100 µM (inactive); in the assay with HL-60, 20.7 µM (inactive); in the assay with SK-MEL-5, > 100 µM (inactive); in the assay with RPMI-8226, 76.6 µM (inactive); with UACC-62, 68.1 µM (inactive); in the assay on Hs-578T, 68.1 µM (inactive). For the same compound, the GI50 with PC-3 was 77.8 µM (inactive); with SK-MEL-2, > 100 µM (inactive); in the assay with M14, > 100 µM (inactive); in the assay with Malme-3M, > 100 µM (inactive); in the assay on OVCAR-5, > 100 µM (inactive); in the assay on SF-539 it was > 100 µM (inactive). Also, the GI50 in the assay on NCI-H460 was > 100 µM (inactive); in the assay with COLO 205, > 100 µM (inactive); in the assay on A498 it was 61.9 µM (inactive); in the assay on HCT-15, 72.9 µM; in the assay with LOX IMVI it was 71.8 µM (inactive); in the assay with UACC-257 it was > 100 µM (inactive). Moreover, the GI50 was > 100 µM (inactive) in the assay with SNB-19 and 93.1 µM (inactive) with OVCAR-3.

In the case of `C=CC(OC(C)=O)c1ccc(OC(=O)C(C)C)c(OC)c1` (stereo not given), the GI50 in the assay on NCI-H226 is 19.6 µM (inactive); in the assay with HL-60, 2.79 µM (inactive); with SK-MEL-5, 15.3 µM (inactive); in the assay on RPMI-8226, 1.82 µM (inactive); with UACC-62, 13.3 µM (inactive); with Hs-578T, 6.64 µM (inactive). In addition, the GI50 with PC-3 is 5.19 µM (inactive); with SK-MEL-2, 4.48 µM (inactive); with M14, 5.6 µM (inactive); with Malme-3M it was 1.94 µM (inactive); in the assay with OVCAR-5, 2.51 µM (inactive); in the assay with SF-539, 9.4 µM (inactive). Further, the GI50 in the assay on NCI-H460 is 11.4 µM (inactive); with COLO 205, 2.49 µM (inactive); with A498, 17.2 µM (inactive); with HCT-15 it was 4.98 µM; in the assay on LOX IMVI, 1.95 µM (inactive); in the assay on UACC-257 it was 9.86 µM (inactive). Also, the GI50 with SNB-19 is 11.8 µM (inactive); in the assay with OVCAR-3, 5.81 µM (inactive).

`Nc1nc(Cl)c(N)c(NCC2(CO)CC2)n1`: the GI50 in the assay on NCI-H226, with HL-60, with SK-MEL-5, with RPMI-8226, in the assay with UACC-62 and in the assay with Hs-578T was > 100 µM (inactive) each time. The GI50 in the assay on PC-3, in the assay on SK-MEL-2, with M14, in the assay with Malme-3M, in the assay with OVCAR-5 and in the assay on SF-539 was > 100 µM (inactive) throughout. The GI50 in the assay on NCI-H460 was > 100 µM (inactive); in the assay on COLO 205 it was > 100 µM (inactive); with A498, > 100 µM (inactive); in the assay with HCT-15, above 100 µM; in the assay on LOX IMVI it was > 100 µM (inactive); in the assay with UACC-257 it was > 100 µM (inactive). For the same compound, the GI50 in the assay with SNB-19 and in the assay with OVCAR-3 was > 100 µM (inactive) throughout.

For `COC1C(CO)OC(n2c3c(Cl)cccc3c3c4c(c5c6cccc(Cl)c6[nH]c5c32)C(=O)NC4=O)C(O)C1O` (stereo not given), the GI50 in the assay with NCI-H226 was 0.187 µM (active); in the assay on HL-60, 0.22 µM (active); in the assay on SK-MEL-5 it was 0.157 µM (active); with RPMI-8226, 0.242 µM (active); in the assay with UACC-62, 0.113 µM (active); in the assay on Hs-578T, 0.31 µM (active). In addition, the GI50 was 0.227 µM (active) in the assay on PC-3; 0.386 µM (active) with SK-MEL-2; 0.333 µM (active) in the assay on M14; 0.223 µM (active) in the assay on Malme-3M; 0.796 µM (active) in the assay on OVCAR-5; 0.195 µM (active) with SF-539. In addition, the GI50 in the assay with NCI-H460 was 0.177 µM (active); with COLO 205, 0.351 µM (active); in the assay on A498, 0.158 µM (active); in the assay with HCT-15, 0.401 µM; with LOX IMVI, 0.116 µM (active); in the assay on UACC-257 it was 0.219 µM (active). Moreover, the GI50 with SNB-19 was 0.213 µM (active); with OVCAR-3 it was 0.292 µM (active).

As to `[N-]=[N+]=NC1OC(=O)C(Cl)=C1N=P(c1ccccc1)(c1ccccc1)c1ccccc1` (stereo not given), the GI50 in the assay with NCI-H226 is > 10 µM (inactive); in the assay with HL-60 it was 3.77 µM (inactive); in the assay on SK-MEL-5, > 10 µM (inactive); in the assay with RPMI-8226, 3.34 µM (inactive); in the assay on UACC-62 it was > 10 µM (inactive); in the assay with Hs-578T it was > 10 µM (inactive). Further, the GI50 in the assay on PC-3 is 2.95 µM (inactive); in the assay on SK-MEL-2 it was > 10 µM (inactive); with M14, 6.98 µM (inactive); in the assay with Malme-3M, > 10 µM (inactive); in the assay on OVCAR-5 it was > 10 µM (inactive); in the assay with SF-539, > 10 µM (inactive). Besides, the GI50 was > 10 µM (inactive) in the assay on NCI-H460; 9.27 µM (inactive) with COLO 205; > 10 µM (inactive) with A498; 7.35 µM with HCT-15; 7.78 µM (inactive) with LOX IMVI; > 10 µM (inactive) in the assay with UACC-257. Also, the GI50 with SNB-19 was > 10 µM (inactive); in the assay on OVCAR-3, 5.9 µM (inactive).
